Assay results: ChEMBL document CHEMBL3046125, “Design and synthesis of niflumic acid-based N-acylhydrazone derivatives as novel anti-inflammatory and analgesic agents” (2013)

Columns and labels:
Format in all cases: functional
Rattus norvegicus [1] = assay: Anti-inflammatory activity in Wistar Rattus norvegicus (rat) assessed as inhibition of carrageenan-induced paw edema at 10 mg/kg, ip measured after 4 hr; details: route intraperitoneal
Rattus norvegicus [2] = assay: Anti-inflammatory activity in Wistar Rattus norvegicus (rat) assessed as inhibition of carrageenan-induced paw edema at 10 mg/kg, ip measured after 30 min; details: 0.5 h, route intraperitoneal
Rattus norvegicus [3] = assay: Anti-inflammatory activity in Wistar Rattus norvegicus (rat) assessed as inhibition of carrageenan-induced paw edema at 10 mg/kg, ip measured after 2 hr; details: route intraperitoneal
Rattus norvegicus [4] = assay: Anti-inflammatory activity in Wistar Rattus norvegicus (rat) assessed as inhibition of carrageenan-induced paw edema at 10 mg/kg, ip measured after 3 hr; details: route intraperitoneal
Mus musculus = assay: Analgesic activity in NMRI Mus musculus (mouse) assessed as inhibition of acetic acid-induced abdominal writhing at 10 mg/kg administered 30 min prior to acetic acid injection; details: Abdomen
Rattus norvegicus [5] = assay: Anti-inflammatory activity in Wistar Rattus norvegicus (rat) assessed as inhibition of carrageenan-induced paw edema at 10 mg/kg, ip measured after 1 hr; details: route intraperitoneal

Row | SMILES | inhibition in vivo at 10 mg/kg (Rattus norvegicus [1]) [%] | inhibition in vivo at 10 mg/kg (Rattus norvegicus [2]) [%] | inhibition in vivo at 10 mg/kg (Rattus norvegicus [3]) [%] | inhibition in vivo at 10 mg/kg (Rattus norvegicus [4]) [%] | inhibition in vivo at 10 mg/kg (Mus musculus) [%] | inhibition in vivo at 10 mg/kg (Rattus norvegicus [5]) [%]
1 | COc1ccc(/C=N/NC(=O)c2cccnc2Nc2cccc(C(F)(F)F)c2)cc1OC | 52.9 | 60.1 | 49 | 44 | 80.7 | 70
2 | COc1cc(/C=N/NC(=O)c2cccnc2Nc2cccc(C(F)(F)F)c2)cc(OC)c1OC | 28.6 | 55.9 | 40.6 | 28.5 | – | 54.4
3 | CN(C)c1ccc(/C=N/NC(=O)c2cccnc2Nc2cccc(C(F)(F)F)c2)cc1 | 28.2 | 61.3 | 51.4 | 39.5 | – | 63.5
4 | O=C(N/N=C/c1cccnc1)c1cccnc1Nc1cccc(C(F)(F)F)c1 | 36 | 59.1 | 62.4 | 52.4 | 51.4 | 76.1
5 | O=C(N/N=C/c1ccncc1)c1cccnc1Nc1cccc(C(F)(F)F)c1 | 45.9 | 68.1 | 65.2 | 54.9 | 85.6 | 70.2
6 | CNc1ncccc1C(=O)N/N=C/c1ccccc1 | 14.8 | 56.5 | 47.2 | 22.7 | – | 67.6
7 | CNc1ncccc1C(=O)N/N=C/c1cccc(Cl)c1 | 40.4 | 67.1 | 61.7 | 39.5 | – | 68.6
8 | CNc1ncccc1C(=O)N/N=C/c1ccc(Cl)cc1 | 18.2 | 46.5 | 54.1 | 22.4 | – | 54.7
9 | CNc1ncccc1C(=O)N/N=C/c1cccc(OC)c1 | 42.2 | 56.1 | 51.5 | 49.5 | – | 64.6
10 | CNc1ncccc1C(=O)N/N=C/c1cccnc1 | 13.8 | 66.3 | 43.7 | 27.7 | – | 61.1
11 | CNc1ncccc1C(=O)N/N=C/c1ccncc1 | 15.5 | 63.2 | 60.4 | 55 | 90.6 | 80.4
12 | O=C(O)c1cccnc1Nc1cccc(C(F)(F)F)c1 [NIFLUMIC ACID] | 52 | 64.1 | 70.1 | 70.6 | 68.3 | 70.4
